{
  "source": "patent US7029671B1",
  "about": "“Method for activating human antigen-presenting cells, activated human antigen-presenting cells, and use thereof” (Kirin Brewery Company, Limited, priority 1996, dated 2006)",
  "key": {"[1]": {"tested_on": "Human Peripheral Blood-derived APC", "test": "Pharmacological Test 1: autologous MLR assay with human peripheral blood-derived APCs pretreated with KRN7000", "format": "cell-based", "details": "KRN7000 100 ng/mL, 40 hours; conclusion from autologous MLR", "method": "This experiment was designed to study an effect of KRN7000 (Compound No.14, a representative glycoside compound of the invention) on APCs prepared from human peripheral blood. The APCs (mainly comprised of dendritic cells) derived from human peripheral blood were prepared essentially according to the method of Hsu et al. (supra). Briefly, human peripheral blood was layered over Ficoll-Paque and centrifuged at 2,000 rpm for 35 minutes to give a mononuclear cell fraction. A portion of the mononuclear cell fraction was suspended into PBS (Ca^++, Mg^++ free) supplemented with 5% of inactivated human AB serum. The resultant solution was layered over 50% Percol, and then centrifuged at 3,000 rpm for 20 minutes to give a high-density fraction. The high-density fraction was panned using a human γ-globulin-coated dish to remove FcR^+ cells therefrom (i.e., a monocyte-removed fraction). The resultant fraction was reacted with anti-CD3 monoclonal antibodies, anti-CD21 monoclonal antibodies and anti-CD56 monoclonal antibodies. […]\nThe APCs (5×10^4 cells/well) and the responder cells (1×10^5 cells/well) both prepared in the above steps were added to wells of a 96-well flat-bottomed plate, and then subjected to autologous MLR assay. […] The amount of the ^3H-TdR taken up into the cells was determined using a liquid scintillation counter. […]"}, "[2]": {"tested_on": "Murine T cell lymphoma EL-4 cells", "test": "Pharmacological Test 4: APC therapy of EL-4-bearing mice, survival period", "format": "in vivo, mouse", "method": "To study an anti-tumor effect of murine spleen-derived APCs activated with KRN7000 on mice implanted with tumor cells, experiments were performed with BDF1 mice (6-week-old, female). All experiments included 6 mice per group. Murine T cell lymphoma EL-4 cells were injected intravenously into each mouse at a level of 1×10^5 cells/mouse (injection day: day 0). On day 1, the vehicle-pretreated APCs (V-APC) and the KRN7000-pretreated (100 ng/mL) APCs (KRN-APC) both prepared in the same manner as in Pharmacological Test 3 were each injected intravenously into the mice at a level of 5×10^5 cells/mouse. As a positive control, KRN7000 was injected intravenously into the mice at a dose of 100 μg/kg on days 1, 5 and 9. Each mouse was checked for a sign of life daily to determine its survival period."}, "[3]": {"tested_on": "Murine colon adenocarcinoma Colon26 cells", "test": "Pharmacological Test 6: APC therapy of mice implanted intrasplenically with Colon26 cells, liver weight", "format": "in vivo, mouse", "method": "The experiment was performed to study an anti-tumor effect of murine bone marrow-derived APCs activated with KRN7000 on mice implanted with tumor cells. All experiments were performed with CDF1 mice (6-week-old, female), which were divided into groups consisting of 5 mice. Murine colon adenocarcinoma Colon26 cells were implanted into each mouse intrasplenically at a level of 2×10^6 cells/mouse (inoculation day: day 0). On day 1, the vehicle-pretreated APCs (V-APC) and the KRN7000-pretreated (100 ng/mL) APCs (KRN-APC) both prepared in the same manner as in Pharmacological Test 5 were individually injected intravenously to the mice at a level of 8×10^5 cells/mouse. As a positive control, KRN7000 was injected intravenously to the mice at a dose of 100 μg/kg on days 1, 5 and 9. On day 14, the liver was removed from each of the mice and weighed. Here, the liver from the mouse that had not been implanted with the tumor cells was about 1 g. Accordingly, the substantial tumor weight was determined by subtracting 1 g from the weight of the liver of the tumor-implanted mouse."}, "[4]": {"tested_on": "Murine melanoma B16 cells", "test": "Pharmacological Test 8: APC therapy of mice with subcutaneous B16 melanoma, tumor volume", "format": "in vivo, mouse", "details": "KRN7000 100 μg/kg i.v. on days 1, 5 and 9 (positive control)", "method": "The experiment was performed with BDF1 mice (6-week-old, female), which were divided into groups consisting of 6 mice. Murine melanoma B16 cells were implanted subcutaneously into each mouse at a level of 1.5×10^6 cells/mouse (implantation day: day 0). Several types of pretreated APCs were prepared in the same manner as in Pharmacological Test 3, in which APCs were pretreated with a vehicle (DMSO, final concentration: 0.1%) (V-APC), with both the vehicle (DMSO, final concentration: 0.1%) and a B16-tumor cell lysate (V-T-APC), with KRN7000 (final concentration: 100 ng/mL) (KRN-APC), and with both KRN7000 (final concentration: 100 ng/mL) and a B16-tumor cell lysate (KRN-T-APC), respectively. Each of the pretreated APCs was injected intravenously into the mice at a dose of 5×10^5 cells/mouse on day 1. As a positive control, KRN7000 was injected intravenously into the mice at a dose of 100 μg/kg on days 1, 5 and 9. The volume of the subcutaneous tumor in each mouse was measured."}, "[5]": {"tested_on": "Human Peripheral Blood-derived APCs", "test": "Pharmacological Test 9: allogeneic MLR assay with human peripheral blood monocyte-derived APCs cultured 3 days", "format": "cell-based", "details": "conclusion from Pharmacological Tests 9, 10 and 11; KRN7000 100 ng/mL", "method": "A monocyte fraction was prepared from human peripheral blood mononuclear cells by Percol density-gradient centrifugation. The monocyte fraction was cultured in the presence or absence of GM-CSF (50 ng/mL) and IL-4 (100 ng/mL), and simultaneously either a vehicle (v; DMSO, 0.1%) or KRN7000 (KRN; 100 ng/mL) was added thereto. After culturing for 3 days, the cells were collected and washed with the medium 3 times to give V-APC, KRN-APC, V-APC-GM and KRN-APC-GM (where “GM” refers to the APCs cultured in the presence of GM-CSF and IL-4), which were then provided for use as APCs. As responder cells, human peripheral blood-derived FcR^− cells were used to perform allogeneic MLR assay."}, "[6]": {"tested_on": "Human Umbilibal Cord Blood-derived APC", "test": "Pharmacological Test 12: autologous MLR assay with human umbilical cord blood monocyte-derived APCs", "format": "cell-based", "details": "KRN7000 100 ng/mL", "method": "A monocyte fraction was prepared from human umbilical cord blood mononuclear cells by Percol density-gradient centrifugation. The monocyte fraction was cultured in the presence of GM-CSF (50 ng/mL) and IL-4 (100 ng/mL), and simultaneously either a vehicle (V; 0.1% DMSO) or KRN7000 (KRN; 100 ng/mL) was added thereto. After culturing for 3 days, the cells were recovered and washed with the medium 3 times to give V-APC-GM and KRN-APC-GM, respectively, which were provided for use as APCs. As response cells, human umbilical cord blood-derived FcR^− cells were used for autologous MLR assay."}, "[7]": {"tested_on": "dendritic cell-rich APCs prepared from the murine spleen", "details": "Koezuka 1995; Yamaguchi 1996; cited from earlier work"}, "[8]": {"details": "KRN7000 100 μg/kg i.v. 3 times versus KRN-APC once"}},
  "data": [
    {"smiles": "CCCCCCCCCCCCCCCCCCCCCCCCCC(=O)N[C@@H](CO[C@H]1O[C@H](CO)[C@H](O)[C@H](O)[C@H]1O)[C@H](O)[C@H](O)CCCCCCCCCCCCCC", "note": "[KRN7000, (2S,3S,4R)-1-(α-D-galactopyranosyloxy)-2-hexacosanoylamino-3,4-octadecanediol]", "values": [
      {"measurement": "activating effect on APCs (antigen-presenting function enhancing effect)", "setting": "[1]", "value": "has an activating effect on the APCs prepared from human peripheral blood"},
      {"measurement": "survival period", "setting": "[2]; EL-4 i.v. day 0, KRN7000 100 μg/kg i.v. on days 1, 5 and 9 (positive control)", "value": "remarkable increase in survival period"},
      {"measurement": "potency of the survival effect compared with one injection of KRN-APC", "setting": "[2]; [8]", "value": "weaker than that when KRN-APC was injected only once"},
      {"measurement": "tumor growth inhibitory effect compared with one injection of KRN-APC", "setting": "[3]; [8]", "value": "at the same level as that when KRN-APC was injected once"},
      {"measurement": "inhibitory effect on tumor growth (liver weight on day 14)", "setting": "[3]; KRN7000 100 μg/kg i.v. on days 1, 5 and 9 (positive control)", "value": "remarkable inhibitory effect on tumor growth"},
      {"measurement": "tumor growth-inhibitory effect (volume of the subcutaneous tumor)", "setting": "[4]", "value": "tumor growth-inhibitory effect"},
      {"measurement": "activation of APCs from human peripheral blood", "setting": "[5]", "value": "can activate the APCs from human peripheral blood by various methods"},
      {"measurement": "activation of APCs derived from human umbilical cord blood", "setting": "[6]", "value": "can activate the APCs derived from human umbilical cord blood by various methods"},
      {"measurement": "enhancement of the functions of dendritic cell-rich APCs from murine spleen", "setting": "[7]", "value": "can enhance the functions of dendritic cell-rich APCs prepared from the murine spleen"}
    ]}
  ]
}
